# Test results from patent US11371022B2, “Blood-brain barrier endothelial cells derived from pluripotent stem cells for blood-brain barrier models” (PRESIDENT AND FELLOWS OF HARVARD COLLEGE, priority 2016, dated 2022).
# Assays:
# efflux pump = assay: DiOC2 permeability test of efflux pump function in BBB chip; type: in vitro ADME, human; conditions: hypoxia stimulation vs normoxia BBB chip; FIG. 9B
# Source text: FIGS. 9A-9C are bar graphs showing the inhibition of the efflux transporter in control and hypoxic stimulated BBB chips by verapamil, MK-571 or KO143. […] All inhibitor-treated samples were independently normalized to the corresponding mock control.
# A non-limiting example of assembling a BBB model in a microfluidic chip having flow, using the hypoxia differentiated PSCs-to-BMVECs is as follows. To assemble the BBB model on microfluidic chips, polydimethylsiloxane (PDMS) microfluidic chip was plasma treated (0.5 mbar, 50 W, 2 min) and coated with 0.01% poly-L-lysine solution for 1 hour. Subsequently, 400 ug/ml collagen IV and 100 μg/ml fibronectin were treated to microfluidic chips and incubated overnight in normal cell culture condition (37 C, 5% CO2, 20% O2). A day after coating, ECM solution was rinsed with EC+RA medium. The harvested astrocytes and pericytes were resuspended at 0.7 and 0.3 million cells/mL in EC+RA medium. Mixture of cells was seeded on apical micro-channel, and placed in incubator for 1 hour allowing the cells to adhere to membrane. The differentiated BMVECs on 6-cm plastic culture dish were dissociated using Accutase, harvested, and resuspended 25 million cells/mL in degassed EC+RA media. The differentiated BMVECs were seeded on basal micro-channel, and flip the entire PDMS chip upside down in petri dish to allow the BMVEC to attach to the membrane. […]
# ABCB (P-gp) [1] = biological target: T1, ABCB (P-gp) (Homo sapiens, UniProt P08183); conditions: iPS-derived BMVEC generated using published protocol, in vitro; cited from earlier work
# T1 construct: host or cells: iPS-derived BMVEC (published protocol)
# ABCB1 = biological target: T2, ABCB1 (Homo sapiens, UniProt P08183); assay: Doxorubicin permeability across BBB chip with or without verapamil (efflux pump inhibition); type: in vitro ADME; conditions: FIG. 9C
# T2 construct: The BBB model chip comprises iPSC-derived, hypoxia-stimulated or -differentiated BMVECs; endogenous in cells; host or cells: human iPSC (IMR90-4)-derived brain microvascular endothelial cells, co-cultured with astrocytes and pericytes on a microfluidic chip
# Source text: Doxorubicin is known as a substrate of ABCB1.
# ABCB (P-gp) [2] = biological target: T3, ABCB (P-gp) (Mus musculus, UniProt P21447); conditions: cited from earlier work
# T3 construct: compared to in vivo efflux ratios (2.4-fold) (Cell, 1994, 77, 4)
# T3 sequence (P21447 whole entry): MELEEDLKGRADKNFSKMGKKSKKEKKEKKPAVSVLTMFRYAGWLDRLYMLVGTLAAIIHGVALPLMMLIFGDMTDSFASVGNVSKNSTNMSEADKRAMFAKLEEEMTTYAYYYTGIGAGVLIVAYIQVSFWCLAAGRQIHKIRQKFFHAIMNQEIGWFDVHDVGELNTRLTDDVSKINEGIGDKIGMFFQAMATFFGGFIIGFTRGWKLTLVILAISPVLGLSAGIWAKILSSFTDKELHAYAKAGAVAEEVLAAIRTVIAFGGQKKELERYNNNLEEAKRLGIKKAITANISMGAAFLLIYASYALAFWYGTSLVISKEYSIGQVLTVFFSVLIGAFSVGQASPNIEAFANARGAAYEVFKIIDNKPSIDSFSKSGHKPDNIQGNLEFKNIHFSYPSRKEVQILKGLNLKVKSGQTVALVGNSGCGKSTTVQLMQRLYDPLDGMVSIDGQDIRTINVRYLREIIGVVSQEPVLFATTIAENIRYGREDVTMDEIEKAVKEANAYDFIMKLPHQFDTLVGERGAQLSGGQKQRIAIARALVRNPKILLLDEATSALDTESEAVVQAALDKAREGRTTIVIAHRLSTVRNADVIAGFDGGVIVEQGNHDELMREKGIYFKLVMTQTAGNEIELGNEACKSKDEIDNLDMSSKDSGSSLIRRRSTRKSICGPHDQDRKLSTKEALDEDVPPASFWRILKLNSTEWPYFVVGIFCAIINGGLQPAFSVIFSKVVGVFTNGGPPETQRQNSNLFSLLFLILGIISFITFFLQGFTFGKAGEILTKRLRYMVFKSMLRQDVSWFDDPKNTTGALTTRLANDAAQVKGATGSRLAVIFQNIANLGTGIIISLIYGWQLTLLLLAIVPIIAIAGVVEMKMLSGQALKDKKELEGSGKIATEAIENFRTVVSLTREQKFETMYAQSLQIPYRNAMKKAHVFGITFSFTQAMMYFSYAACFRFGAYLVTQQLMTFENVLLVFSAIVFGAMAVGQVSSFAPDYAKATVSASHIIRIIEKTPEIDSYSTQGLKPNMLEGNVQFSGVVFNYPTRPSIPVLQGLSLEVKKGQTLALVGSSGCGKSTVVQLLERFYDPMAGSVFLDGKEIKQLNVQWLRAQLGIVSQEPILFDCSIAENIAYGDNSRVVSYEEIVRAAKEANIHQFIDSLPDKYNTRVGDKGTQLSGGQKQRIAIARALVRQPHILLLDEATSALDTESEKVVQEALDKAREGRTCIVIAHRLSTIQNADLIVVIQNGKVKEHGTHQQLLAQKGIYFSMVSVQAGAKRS
# T2 sequence (P08183 whole entry): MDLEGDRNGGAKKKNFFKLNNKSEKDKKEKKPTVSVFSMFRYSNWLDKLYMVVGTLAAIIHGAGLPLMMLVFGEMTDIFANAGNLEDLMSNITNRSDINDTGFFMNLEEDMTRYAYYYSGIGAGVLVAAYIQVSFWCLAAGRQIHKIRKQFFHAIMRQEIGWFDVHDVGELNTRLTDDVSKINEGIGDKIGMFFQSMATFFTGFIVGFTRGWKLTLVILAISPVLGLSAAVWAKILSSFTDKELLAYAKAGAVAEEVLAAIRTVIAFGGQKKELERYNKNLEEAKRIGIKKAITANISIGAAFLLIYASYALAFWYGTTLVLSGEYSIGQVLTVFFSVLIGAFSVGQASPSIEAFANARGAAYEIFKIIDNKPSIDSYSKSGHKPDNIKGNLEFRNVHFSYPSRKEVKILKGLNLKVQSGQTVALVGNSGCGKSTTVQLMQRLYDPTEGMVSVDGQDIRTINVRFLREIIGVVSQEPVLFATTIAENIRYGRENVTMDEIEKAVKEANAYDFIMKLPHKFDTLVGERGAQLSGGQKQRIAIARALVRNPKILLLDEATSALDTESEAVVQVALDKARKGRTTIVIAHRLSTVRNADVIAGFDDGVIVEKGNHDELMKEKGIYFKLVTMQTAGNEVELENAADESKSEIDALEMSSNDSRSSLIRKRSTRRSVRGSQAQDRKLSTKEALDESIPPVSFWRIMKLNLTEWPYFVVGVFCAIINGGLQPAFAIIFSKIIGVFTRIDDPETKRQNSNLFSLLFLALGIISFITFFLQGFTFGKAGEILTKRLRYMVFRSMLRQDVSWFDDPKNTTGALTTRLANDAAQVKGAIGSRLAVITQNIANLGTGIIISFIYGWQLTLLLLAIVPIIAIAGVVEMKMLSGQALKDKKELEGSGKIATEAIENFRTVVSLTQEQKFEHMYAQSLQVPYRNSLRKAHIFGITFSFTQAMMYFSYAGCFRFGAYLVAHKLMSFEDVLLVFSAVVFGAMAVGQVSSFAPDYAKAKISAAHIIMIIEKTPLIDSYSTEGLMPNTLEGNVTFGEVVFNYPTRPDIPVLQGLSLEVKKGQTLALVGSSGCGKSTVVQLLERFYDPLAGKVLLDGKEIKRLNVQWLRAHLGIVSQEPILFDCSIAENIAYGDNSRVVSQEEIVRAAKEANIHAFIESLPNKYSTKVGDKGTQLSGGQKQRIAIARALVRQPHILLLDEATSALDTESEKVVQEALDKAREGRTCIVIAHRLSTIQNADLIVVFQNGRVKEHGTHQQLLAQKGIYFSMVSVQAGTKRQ
# T1 sequence (P08183 whole entry): as above
efflux pump function in DiO2 test (efflux pump),"doxorubicin permeability, increase by verapamil treatment (ABCB1; hypoxia BBB chip, verapamil (ABCB1 inhibitor) vs mock control) [fold]",change of doxorubicin BBB penetration by verapamil (ABCB1; normoxia control BBB chip),SMILES,efflux ratio (ABCB (P-gp) [1]) [fold],in vivo efflux ratios (ABCB (P-gp) [2]) [fold]
enhanced efflux pump function,–,–,CCN1/C(=C/C=C/c2oc3ccccc3[n+]2CC)Oc2ccccc21.[I-] [DiO2],–,–
–,2.7,did not show significant change,"COc1cccc2c1C(=O)c1c(O)c3c(c(O)c1C2=O)C[C@@](O)(C(=O)CO)C[C@@H]3O[C@H]1C[C@H](N)[C@H](O)[C@H](C)O1 [Doxorubicin, doxorubicin]",1.3,2.4
